The values below come from US20160230227A1, “METHODS OF TREATING ALZHEIMER'S DISEASE” (THE NEW YORK STEM CELL FOUNDATION, priority 2012, published 2016).

In one data set the target is T1, γ-secretase (Homo sapiens, UniProt P49768).
T1 construct: endogenous in cells
The data set can be described thus: Aβ production in conditioned media by ELISA. The format is cell-based. The settings on record: 10 μM, control and PS1 cells.

The conditions of data set [1]: cited from earlier work.
The subject of another data set is 7889O neurons. The format is cell-based, human.
The next data set concerns Na+ channels. The format is cell-based, human.
The subject of data set [2] is adult SVZ neural progenitor cells. The data set can be described thus: Primary neurosphere formation of adult SVZ progenitors. The settings on record: eight-week old mice, in the presence of EGF and FGF, 10 days in vitro, p=0.04. The format is cell-based. Here is the method:
(§1) This supports a potential pro-neurogenic role for NDP in adult neurogenesis.
Adult FVB/N mice were killed by cervical dislocation (n=3 per preparation) and their brains removed and placed into Pipes buffer (20 mM Pipes, 25 mM glucose, 0.12M NaCl, 0.5 mM KCl [ph 7.4]). The lateral walls of the lateral ventricles were dissected, collected in Pipes buffer and incubated in a mixture containing 1.2 mL of activated papain and 8.8 ml of Pipes buffer. Papain was activated 20 min in advance by placing 3 mg of papain (Worthington Biochemical) in 1 ml of 1.1 mM EDTA, 5.5 mM cysteine HCl. The pieces of tissue were incubated in papain solution at 37° C. on a rocking platform for 10 min and collected by centrifugation at 1300 rpm for 5 min. The cellular pellet was resuspended in 1 ml of DMEM-F12 (GIBCO) containing 0.7 mg of ovomucoid inhibitor and 1 mg of DNase. The cells were dissociated and neural precursor cells were separated from differentiated cells, myelin and extracellular matrix using density gradient separation by centrifugation step with 22% Percoll. […] The cells were counted and plated in 96well-low attachment plate (Corning) (1.5×10^5/mL) in the same medium containing 10 ng/mL of EGF receptor grade (Millipore) and 10 ng/mL human bFGF (Invitrogen). […] The numbers of neurospheres were counted for six 40× fields/well after 10 days in vitro. […]

A further data set relates to human iPSC-derived NPCs. The data set can be described thus: Proliferation of iPSC-derived NPCs (ki67 staining). The settings on record: d14 NPCs; data not shown. Type of data set: cell-based.
Text: as §1

In the case of `C[C@H](NC(=O)Cc1cc(F)cc(F)c1)C(=O)N[C@H](C(=O)OC(C)(C)C)c1ccccc1` [DAPT], the Aβ production result at γ-secretase is given as “sufficient to block”; on γ-secretase (listed as DapT), “blocks”.
`CC12CC3CC(C)(C1)CC(N)(C3)C2` [Memantine]: the reported adverse events result in data set [1] (in vivo) was “infrequent and mild”. Moreover, in data set [1] (moderate to severe Alzheimer's disease), the efficacy in treatment entry is listed as “moderately efficacious”.
As to `NC1=N[C@H](O)[C@H]2[C@H]3O[C@]4(O)O[C@@H]([C@@H](O)[C@@]2(N1)[C@@H]4O)[C@]3(O)CO` [TTX, tetrodotoxin], the “kinetics of remaining Ca2+ transients” value in the data set with 7889O neurons is reported as “generally slower”. Also, in the data set with Na+ channels, the action potentials result is on record as “blocked” and the inward currents entry is “blocked”.
For the compound “recombinant norrin: recombinant Norrin protein (R&D systems), product of NDP; secreted molecule activating canonical Wnt signaling via Frizzled-4”, the “proliferation as measured by primary neurosphere formation” value is recorded as “increased proliferation” in data set [2] and “induces proliferation” in data set [2] (listed as recombinant Norrin protein). In addition, in the data set on human iPSC-derived NPCs, the “proliferation (ki67 staining)” value is “did not show differences in proliferation”.
Turning to tetraethylammonium [TEA], the “long lasting outward current after the fast inward current” value with K+ channels is reported as “cancelled”.
